{"source": "patent US20100099640A1", "about": "“TISSUE DEGENERATION PROTECTION” (priority 2007, published 2010)", "experiment": "Analysis of steviol metabolites in 24 h human urine after oral stevioside", "assay_type": "in vivo", "description": "Urine Fractionation and Derivatisation of steviol containing fractions. The total 24 h urine fraction (between 1124 and 2494 mL) form human subject subjected to a steviol treatment (three days of oral stevioside administration (750 mg per day)) was run over an Amberlite XAD-2 column at about 30 mL/min. The column bed volume was 200 mL which is sufficient for the adsorption of all amphipathic molecules in 24 h urine. The columns were then rinsed with 1 L of distilled water and then eluted with 400 mL MeOH:Acetone (50:50, v/v). The eluate was divided into 4 equal fractions and the solvent was evaporated at reduced pressure at 50° C.\nFractions containing steviol and/or dihydroisosteviol used as internal standard were completely dried; the residues were taken up in dry acetone and derivatized to form the 7-methoxy-coumarinyl esters as described (Minne, V. et al. J. Agr. Food Chem., 2004, 52, 2445-2449). […] After evaporation of the solvent, the residue was dissolved in a known amount of MeOH and HPLC was done using a fluorescence detector (λexc.: 321 nm, λem.: 391 nm) (Minne, V. et al. J. Agr. Food Chem., 2004, 52, 2445-2449). […]\nIsolation of larger amounts of steviol glucuronide. […] Samples of each fraction were analysed by TLC using ethyl acetate:ethanol:water (80:30:20) as solvent and compared with steviol glucuronide as a reference compound. […]", "data": [{"smiles": "C=C1C[C@@]23CC[C@H]4C(C)(CCC[C@@]4(C)C(=O)O[C@@H]4O[C@H](CO)C(O)[C@H](O)C4O)[C@@H]2CCC1(OC1O[C@H](CO)C(O)C(O)C1OC1O[C@H](CO)C(O)[C@H](O)C1O)C3", "note": "(stereo in doubt) [stevioside, Kaur-16-en-18-oic acid, 13-[(2-O-b-D-glucopyranosyl-b-D-glucopyranosyl)oxy]-, b-D-glucopyranosyl ester, (4a)-]", "values": [{"measurement": "free steviol in urine", "setting": "after oral stevioside, human urine", "value": "no free steviol can be detected"}, {"measurement": "metabolite detected in the collected urine", "setting": "three days of oral stevioside (750 mg per day), 24 h urine", "value": "steviol glucuronide was isolated as the only metabolite detected"}]}]}
